The values below are quoted from earlier work in patent US7351724B2, “Oxadiazole ketone inhibitors of fatty acid amide hydrolase” (The Scripps Research Institute, priority 2004, dated 2008).

One data set has as its system CREAE mice. Particulars: Baker 2001; cited from earlier work.
The subject of data set [1] is rats. The settings on record: cited from earlier work.
Data set [2] relates to rats. Particulars: Kathuria 2003; cited from earlier work.
Data set [3] deals with rats. Particulars: rat; Kathuria 2003; cited from earlier work.

Each structure is given as a SMILES string.

Turning to `CCCCCCCCCCCCCCCCS(=O)(=O)F` [AM374], in the data set with CREAE mice, the spasticity result is given as “significantly reduce spasticity”.

For the compound `NC(=O)c1cccc(-c2cccc(OC(=O)NC3CCCCC3)c2)c1` [URB-597], the “analgesic efficacy/activity in hot plate test” value in the data set with rats [1] is reported as “analgesic efficacy”. In addition, in the data set on rats [2], the “efficacy in zero plus maze model of anxiety” value is on record as “efficacy”. Besides, the “analgesic efficacy in formalin test” value in the data set on rats [3] is listed as “analgesic efficacy”.
